From patent publication US7235687B2, “Derivatives of 4,4′-dithiobis-(3-aminobutane-1-sulfphonates) and compositions containing same” (Institut National de la Sante et de la Recherche Medicale …, priority 2002, dated 2007) come the findings set out here.

The experiment has as its system Deoxycorticosterone acetate (DOCA)-salt hypertensive rats. Description: Effect on blood pressure in DOCA-salt hypertensive rats. In kind it is in vivo, rat. The following applies: DOCA-salt hypertensive male Wistar Kyoto rats; oral gavage in water at 15 mg/kg; 4.5 hours after administration. The method, then:
Deoxycorticosterone acetate (DOCA)-salt hypertensive rats were obtained according to Pham, I. et al (1993) J. Pharmacol. Exp. Ther. 265, 1339–1347 with the following modifications: under pentobarbital anaesthesia, unilateral nephrectomy was performed in male Wistar Kyoto rats (300 g) and a pellet of 50 mg of DOCA was implanted s.c. After surgery, the rats were fed on standard rat chow and the drinking water was supplemented with 0.9% NaCl and 0.2% KCl. Hypertension developed 3 weeks after surgery.
To record arterial blood pressure, DOCA-salt rats were anaesthetized with pentobarbital sodium (50 mg/kg i.p., Sentravet laboratory, Plancoët, France), a femoral artery catheter (PE50) filled with heparinized saline (250 U/ml) was inserted, then brought under the skin and emerged at the nape of the neck. A flexible metal spring was attached to the skull and neck of the rat and connected to dual channel swivels mounted directly above the cage. This arrangement allowed the rat free movement inside the cage. […] Mean arterial BP was continuously recorded throughout each experiment using a COBE CDX III pressure transducer (Phymep, Paris, France) connected to the MacLab system (Phymep, Paris, France) composed of a MacLab technology unit and Chart software running on a Macintosh computer. […]

In the case of `Cl.Cl.NC(CCS(=O)(=O)[O-])CSSCC(N)CCS(=O)(=O)[O-].[Na+].[Na+]` (stereo not shown) [Example 1, 4,4′ dithiobis (sodium 3-aminobutane-1-sulfonate) bis chlorohydrate], the “decrease of mean arterial blood pressure” value worked out at 3680 Pa.
